Results on 21 compounds are retold here after patent publication US11492348B2, “Tri-substituted aryl and heteroaryl derivatives as modulators of PI3-kinase and autophagy pathways” (Neuropore Therapies, Inc., priority 2018, dated 2022).

Counter-ions that a name gives are not always drawn.

The test system of assay [1] is (Ser-473) pAKT in B103 (Rat Neuroblastoma) cells. Put plainly: pAKT protocol: loss of (Ser-473) pAKT by AlphaScreen in insulin-stimulated B103 cells. It counts as cell-based. The conditions noted are these: (Ser-473) pAKT/total AKT IC50, 2-hour pretreatment, 2.5 μg/mL insulin 20 minutes. The protocol: Inhibition of the PI3K-AKT-mTOR pathway was measured by quantifying the loss of (Ser-473) pAKT using AlphaScreen (Perkin Elmer). B103 (Rat Neuroblastoma) cells were seeded in serum containing medium (High Glucose DMEM (-Phenol Red)+10% FBS+2× Glutamax+1 mM Sodium Pyruvate+10 mM HEPES+1× Non-Essential Amino Acids+1× Pen/Strep) on a 96-well tissue culture treated plate and grown for 20 hours. Cells were then serum starved in serum free medium (High Glucose DMEM (-Phenol Red)+1× Glutamax+1 mM Sodium Pyruvate+1× Pen/Strep) for 6 hours prior to a 2-hour pretreatment with inhibitors of the pathway, including reference inhibitor LY294002. These inhibitors were prepared at a 200× final concentration as a 6-point, 1:3 serial dilution in DMSO series, with DMSO as the 7th point. The inhibitors were then diluted in experimental medium (High Glucose DMEM (-Phenol Red)+1× Glutamax+1 mM Sodium Pyruvate+1× Pen/Strep+25 mM HEPES+0.1% BSA) and combined with the cells at 1× final concentration in 0.5% DMSO. […] Cells were promptly lysed using Perkin Elmer proprietary lysis buffer and the (Ser-473) pAKT and total AKT contained in the lysate was measured by AlphaScreen. In AlphaScreen, donor beads were coated with streptavidin to capture one of the antibodies, which is biotinylated. Acceptor beads were coated with Protein A to immobilize the other antibody. In the presence of target protein, the two antibodies bring the donor and acceptor beads close together, generating signal. The amount of light emission is directly proportional to the amount of target protein present in the sample. For each inhibitor tested: the ratio of measured (Ser-473) pAKT/totalAKT was plotted in GraphPad Prism as a 7-point, non-linear regression, 4-parameter curve with bottom constrained to reference control bottom and unconstrained top anchored to DMSO.
Background: Alpha assays give light when donor and acceptor beads are brought close together.

Assay [2] has as its target PI3Kα (Homo sapiens (Human), UniProt P42336). Put plainly: Inhibition of PI3Kα (ADP-Glo kinase activity assay, ATP to ADP conversion). It counts as biochemical. The following applies: 25 μM PIP2:PS, 60 μM ATP, 30 min reaction, luminescence. Summed up: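 Recombinant active PI3Kα (1.1 nM) in HEPES pH 7.5 buffer with 6 mM MgCl2 and 8 mM DTT was preincubated with compound for 0 or 3 h. The reaction ran for 30 min with 25 µM PIP2:PS and 60 µM ATP, and ADP formation was read by ADP-Glo luminescence. IC50 came from a 12-point, 1:3 series fitted with a 4-parameter model, bottom fixed to reference inhibitor controls and top floating.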
On the technique in general: In ADP-Glo the light output rises with the ADP produced.

Sequence of PI3Kα (P42336 whole entry): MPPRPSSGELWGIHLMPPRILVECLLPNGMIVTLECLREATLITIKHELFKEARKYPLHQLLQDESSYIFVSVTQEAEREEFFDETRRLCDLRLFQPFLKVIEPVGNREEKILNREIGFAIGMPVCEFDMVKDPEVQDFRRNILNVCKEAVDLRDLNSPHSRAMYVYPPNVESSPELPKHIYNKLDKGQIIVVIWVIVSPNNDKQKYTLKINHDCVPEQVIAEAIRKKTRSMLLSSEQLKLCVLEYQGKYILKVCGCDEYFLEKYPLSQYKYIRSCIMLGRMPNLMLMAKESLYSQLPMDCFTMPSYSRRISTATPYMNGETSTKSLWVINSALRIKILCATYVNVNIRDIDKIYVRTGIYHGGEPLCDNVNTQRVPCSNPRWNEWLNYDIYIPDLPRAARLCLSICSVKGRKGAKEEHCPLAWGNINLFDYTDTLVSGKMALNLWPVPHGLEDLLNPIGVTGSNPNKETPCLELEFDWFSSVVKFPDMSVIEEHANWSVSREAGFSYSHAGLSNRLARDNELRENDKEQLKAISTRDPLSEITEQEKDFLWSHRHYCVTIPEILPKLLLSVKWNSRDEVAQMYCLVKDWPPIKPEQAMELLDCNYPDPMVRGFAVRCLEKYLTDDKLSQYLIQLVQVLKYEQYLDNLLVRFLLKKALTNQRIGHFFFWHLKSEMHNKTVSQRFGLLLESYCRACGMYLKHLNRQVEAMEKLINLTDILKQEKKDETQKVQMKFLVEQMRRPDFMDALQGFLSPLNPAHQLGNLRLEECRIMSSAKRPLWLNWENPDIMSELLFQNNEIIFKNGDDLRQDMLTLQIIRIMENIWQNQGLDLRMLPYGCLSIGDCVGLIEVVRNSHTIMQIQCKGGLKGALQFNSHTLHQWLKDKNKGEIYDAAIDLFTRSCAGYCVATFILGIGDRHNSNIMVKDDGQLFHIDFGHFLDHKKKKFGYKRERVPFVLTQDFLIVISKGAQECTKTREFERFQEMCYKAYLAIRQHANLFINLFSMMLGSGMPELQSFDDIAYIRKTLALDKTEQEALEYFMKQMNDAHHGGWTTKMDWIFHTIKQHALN
Sequence of PI3Kα (P27986 whole entry partner): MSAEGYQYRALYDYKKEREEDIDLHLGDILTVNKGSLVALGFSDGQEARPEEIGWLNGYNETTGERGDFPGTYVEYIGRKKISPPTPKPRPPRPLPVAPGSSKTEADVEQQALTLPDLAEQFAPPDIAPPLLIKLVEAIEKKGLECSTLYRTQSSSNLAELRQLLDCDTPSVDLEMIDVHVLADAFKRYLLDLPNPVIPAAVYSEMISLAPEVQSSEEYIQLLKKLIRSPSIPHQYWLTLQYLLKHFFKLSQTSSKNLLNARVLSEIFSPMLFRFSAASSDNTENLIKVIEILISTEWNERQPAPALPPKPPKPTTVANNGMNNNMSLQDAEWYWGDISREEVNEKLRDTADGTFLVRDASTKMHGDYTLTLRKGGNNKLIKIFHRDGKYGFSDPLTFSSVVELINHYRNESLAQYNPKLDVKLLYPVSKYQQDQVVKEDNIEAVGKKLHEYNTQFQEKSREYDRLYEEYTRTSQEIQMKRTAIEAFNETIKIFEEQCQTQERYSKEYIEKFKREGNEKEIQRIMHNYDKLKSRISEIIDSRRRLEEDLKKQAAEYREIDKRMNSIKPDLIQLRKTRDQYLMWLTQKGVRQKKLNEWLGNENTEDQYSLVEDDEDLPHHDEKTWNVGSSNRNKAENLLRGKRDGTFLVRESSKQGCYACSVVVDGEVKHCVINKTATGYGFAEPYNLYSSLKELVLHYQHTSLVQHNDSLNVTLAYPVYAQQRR

By IC50 is commonly meant the midpoint of a concentration-inhibition curve. With `Nc1ncc(-c2cc(N3CCOCC3)cc(S(=O)(=O)CCc3ccc(F)cc3)c2)cn1` [Compound 82, 5-(3-((4-fluorophenethyl)sulfonyl)-5-morpholinophenyl)pyrimidin-2-amine], in assay [1], the IC50 worked out at 10.8 µM. Further, the “PI3Ka IC50” value in assay [2] worked out at 0.29 µM.
The matching figures for `CC(=O)N1CCC(S(=O)(=O)c2cc(-c3cnc(N)nc3)cc(N3CCOCC3)c2)CC1` [Compound 83, 1-(4-((3-(2-aminopyrimidin-5-yl)-5-morpholinophenyl)sulfonyl)piperidin-1-yl)ethan-1-one]: 8.47 µM and 0.34 µM.
The matching figures for `CC(C)C(=O)N1CC(S(=O)(=O)c2cc(-c3cnc(N)nc3)cc(N3CCOCC3)c2)C1` [Compound 76, 1-(3-((3-(2-aminopyrimidin-5-yl)-5-morpholinophenyl)sulfonyl)azetidin-1-yl)-2-methylpropan-1-one]: 5.64 µM and 0.30 µM.
The matching figures for `CNc1ccc(-c2cc(N3CCOCC3)cc(S(=O)(=O)[C@@H]3CCOC3)c2)cn1` [Compound 108, (R)-N-methyl-5-(3-morpholino-5-((tetrahydrofuran-3-yl)sulfonyl)phenyl)pyridin-2-amine]: 4.72 µM and 0.69 µM.
`NC(=O)N1CC(S(=O)(=O)c2cc(-c3cnc(N)nc3)cc(N3CCOCC3)c2)C1` [Compound 81, 3-((3-(2-aminopyrimidin-5-yl)-5-morpholinophenyl)sulfonyl)azetidine-1-carboxamide]: in assay [1], the half-inhibitory concentration (IC50) is 26.4 µM. In addition, in assay [2], the “PI3Ka IC50” value amounted to 0.062 µM.
For `CCC(=O)N1CC(S(=O)(=O)c2cc(-c3cnc(N)nc3)cc(N3CCOCC3)c2)C1` [Compound 75, 1-(3-((3-(2-aminopyrimidin-5-yl)-5-morpholinophenyl)sulfonyl)azetidin-1-yl)propan-1-one], in that order: 6.4 µM and 0.25 µM.
Turning to `Nc1ncc(-c2cc(N3CCOCC3)cc(S(=O)(=O)c3c[nH]c4ccccc34)c2)cn1` [Compound 114, 5-(3-((1H-indol-3-yl)sulfonyl)-5-morpholinophenyl)pyrimidin-2-amine], the IC50 in assay [1] stood at 15.3 µM. The “PI3Ka IC50” value in assay [2] worked out at 2.4 µM.
`Nc1ncc(-c2cc(N3CCOCC3)cc(S(=O)(=O)CC3CCCCC3)c2)cn1` [Compound 60, 5-(3-((cyclohexylmethyl)sulfonyl)-5-morpholinophenyl)pyrimidin-2-amine]: in assay [1], the IC50 stood at 31.1 µM. For the same compound, the “PI3Ka IC50” value in assay [2] is 0.81 µM.
For `NCCNc1ncc(-c2cc(N3CCOCC3)cc(S(=O)(=O)Cc3ccc(F)cc3)c2)cn1` [47 (as a HCl salt), N1-(5-(3-((4-fluorobenzyl)sulfonyl)-5-morpholinophenyl)pyrimidin-2-yl)ethane-1,2-diamine], in that order: 2.18 µM and 1.2 µM.
The matching figures for `Nc1ncc(-c2cc(N3CCCc4ccccc43)cc(N3CCOCC3)n2)cn1` [Compound 140, 5-(4-(3,4-Dihydroquinolin-1(2H)-yl)-6-morpholinopyridin-2-yl)pyrimidin-2-amine]: 0.31 µM and 0.12 µM.
For `CC(C)(C)NC(=O)N1CC(S(=O)(=O)c2cc(-c3cnc(N)nc3)cc(N3CCOCC3)c2)C1` [Compound 92, 3-((3-(2-aminopyrimidin-5-yl)-5-morpholinophenyl)sulfonyl)-N-(tert-butyl)azetidine-1-carboxamide], in that order: 2.91 µM and 0.15 µM.
As to `Nc1ccc(-c2cc(N3CCOCC3)cc(S(=O)(=O)Cc3ccc(F)cc3F)c2)nn1` [Compound 96, 6-(3-((2,4-difluorobenzyl)sulfonyl)-5-morpholinophenyl)pyridazin-3-amine], the IC50 in assay [1] was determined as 1.06 µM. The “PI3Ka IC50” value in assay [2] stood at 1.4 µM.
As for `Nc1ncc(-c2cc(N3CCOCC3)cc(S(=O)(=O)c3ccc4c(c3)OCC4)c2)cn1` [Compound 116, 5-(3-((2,3-dihydrobenzofuran-6-yl)sulfonyl)-5-morpholinophenyl)pyrimidin-2-amine], the 50% inhibitory concentration (IC50) in assay [1] was found to be 22.9 µM. Also, the “PI3Ka IC50” value in assay [2] came out at 2.3 µM.
The matching figures for `Nc1ncc(-c2cc(N3CCOCC3)cc(S(=O)(=O)Cc3ccncc3)c2)cn1` [Compound 97, 5-(3-morpholino-5-((pyridin-4-ylmethyl)sulfonyl)phenyl)pyrimidin-2-amine]: 12.4 µM and 0.51 µM.
Take `Nc1ncc(-c2cc(N3CCOCC3)cc(S(=O)(=O)/C=C/c3ccccc3O)c2)cn1` [Compound 113, (E)-2-(2-((3-(2-aminopyrimidin-5-yl)-5-morpholinophenyl)sulfonyl)vinyl)phenol]: the IC50 in assay [1] was 14.3 µM. In addition, the “PI3Ka IC50” value in assay [2] was 1.1 µM.
For `Nc1ncc(-c2cc(Cc3ccccc3)cc(N3CCOCC3)n2)cn1` [Compound 124, 5-(4-benzyl-6-morpholinopyridin-2-yl)pyrimidin-2-amine], in that order: 0.89 µM and 0.12 µM.
For `Nc1ccc(-c2cc(N3CCOCC3)cc(S(=O)(=O)[C@@H]3CCOC3)c2)cn1` [Compound 101, (R)-5-(3-morpholino-5-((tetrahydrofuran-3-yl)sulfonyl)phenyl)pyridin-2-amine], in assay [1], the IC50 came to 8.53 µM. Also, in assay [2], the “PI3Ka IC50” value is 0.88 µM.
Regarding `Nc1ncc(-c2cc(N3CCOCC3)cc(S(=O)(=O)[C@@H]3CCOC3)c2)cc1C(F)(F)F` [Compound 100, (R)-5-(3-morpholino-5-((tetrahydrofuran-3-yl)sulfonyl)phenyl)-3-(trifluoromethyl)pyridin-2-amine], the IC50 in assay [1] was 48.2 µM. Further, in assay [2], the “PI3Ka IC50” value was 1.6 µM.
The matching figures for `Nc1ncc(-c2cc(N3CCOCC3)cc(S(=O)(=O)C3CN(C(=O)c4ccc(F)cc4)C3)c2)cn1` [Compound 79, (3-((3-(2-aminopyrimidin-5-yl)-5-morpholinophenyl)sulfonyl)azetidin-1-yl)(4-fluorophenyl)methanone]: 5.02 µM and 0.21 µM.
Consider `Nc1ncc(-c2cc(N3CCOCC3)nc(S(=O)(=O)c3ccccc3)c2)cn1` [Compound 118, 5-(2-morpholino-6-(phenylsulfonyl)pyridin-4-yl)pyrimidin-2-amine], for which the IC50 in assay [1] is 13.8 µM. In assay [2], the “PI3Ka IC50” value amounted to 0.88 µM.
`O=C(C1CC1)N1CC(S(=O)(=O)c2cc(-c3cnc(NC4CC4)nc3)cc(N3CCOCC3)c2)C1` [Compound 102, cyclopropyl(3-((3-(2-(cyclopropylamino)pyrimidin-5-yl)-5-morpholinophenyl)sulfonyl)azetidin-1-yl)methanone]: in assay [1], the IC50 is 6.79 µM. Besides, the “PI3Ka IC50” value in assay [2] was 0.54 µM.
